Measured values published in patent publication US20080275058A1, “N-Substituted-1H-Quinoline-2,4-Diones, Preparation Method Thereof, And Pharmaceutical Composition Containing The Same” (KOREA RESEARCH INSTITUTE OF CHEMICAL TECHNOLOGY, priority 2005, published 2008).
Like-named read-outs stand apart in the source and are kept apart here.

How the values were obtained:
5-HT2c = biological target: T1, 5-HT2c (Homo sapiens, UniProt P28335); experiment: Radioligand binding, 5-HT2c ([3H]Mesulergine); conditions: Table 4; [3H]Mesulergine 1 nM; read-out: Binding affinity, IC50 (nM) 5-HT2c
T1 construct: purchased Euroscreen/BioSignal Packard Inc
T1 sequence (P28335 33-458): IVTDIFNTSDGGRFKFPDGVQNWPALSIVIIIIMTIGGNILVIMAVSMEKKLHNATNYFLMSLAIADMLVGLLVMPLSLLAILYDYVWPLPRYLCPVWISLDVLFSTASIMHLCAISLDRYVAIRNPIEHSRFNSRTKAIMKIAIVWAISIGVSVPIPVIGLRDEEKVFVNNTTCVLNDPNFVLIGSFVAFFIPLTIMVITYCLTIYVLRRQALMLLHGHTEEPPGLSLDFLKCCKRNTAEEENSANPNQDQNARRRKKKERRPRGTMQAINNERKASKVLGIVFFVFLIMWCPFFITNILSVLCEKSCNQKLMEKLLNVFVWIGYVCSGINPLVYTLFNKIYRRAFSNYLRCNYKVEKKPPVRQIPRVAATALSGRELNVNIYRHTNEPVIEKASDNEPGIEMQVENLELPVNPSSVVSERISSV

5-HT2a = biological target: T2, 5-HT2a (Homo sapiens, UniProt P28223); experiment: Radioligand binding, 5-HT2a ([3H]Ketanserin); conditions: Table 4; [3H]Ketanserin 1 nM; read-out: Binding affinity, IC50 (nM) 5-HT2a
T2 construct: purchased Euroscreen/BioSignal Packard Inc
T2 sequence (P28223 whole entry): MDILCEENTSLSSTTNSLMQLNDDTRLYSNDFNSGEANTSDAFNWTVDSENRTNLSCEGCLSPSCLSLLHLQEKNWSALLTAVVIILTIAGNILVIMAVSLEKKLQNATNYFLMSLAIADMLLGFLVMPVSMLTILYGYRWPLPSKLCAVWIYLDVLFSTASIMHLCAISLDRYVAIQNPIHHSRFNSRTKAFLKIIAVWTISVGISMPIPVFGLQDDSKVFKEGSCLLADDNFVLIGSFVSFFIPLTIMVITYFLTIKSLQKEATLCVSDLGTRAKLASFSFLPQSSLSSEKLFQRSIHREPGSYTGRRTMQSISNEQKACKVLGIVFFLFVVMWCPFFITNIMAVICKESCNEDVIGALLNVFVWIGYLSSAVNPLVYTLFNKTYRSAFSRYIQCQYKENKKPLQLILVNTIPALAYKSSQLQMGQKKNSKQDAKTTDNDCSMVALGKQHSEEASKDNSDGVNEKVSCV

[1] = biological target: T3, Human serotonin 5-HT6 receptor (Homo sapiens, UniProt P50406); experiment: [3H]LSD binding assay on cloned 5-HT6 receptor membranes
T3 construct: made in house; host or cells: insect Sf21 cells (baculovirus vector BacPAK8)
T3 sequence (P50406 whole entry): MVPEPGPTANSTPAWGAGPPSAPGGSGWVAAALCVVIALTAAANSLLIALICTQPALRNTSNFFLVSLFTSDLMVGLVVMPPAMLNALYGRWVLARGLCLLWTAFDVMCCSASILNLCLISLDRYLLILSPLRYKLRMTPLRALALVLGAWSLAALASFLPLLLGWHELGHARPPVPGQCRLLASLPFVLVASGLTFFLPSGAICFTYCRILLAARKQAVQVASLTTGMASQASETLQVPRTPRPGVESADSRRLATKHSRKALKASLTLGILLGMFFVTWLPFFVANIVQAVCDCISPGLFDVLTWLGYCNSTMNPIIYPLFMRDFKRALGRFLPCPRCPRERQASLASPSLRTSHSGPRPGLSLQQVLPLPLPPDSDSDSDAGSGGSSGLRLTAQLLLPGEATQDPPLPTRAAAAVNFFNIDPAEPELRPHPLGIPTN

hD4.2 receptor = biological target: T4, hD4.2 receptor (Homo sapiens, UniProt P21917, DEL265-296); experiment: Radioligand binding, dopamine D4 ([3H]YM-09151-2); conditions: Table 4; [3H]YM-09151-2 0.06 nM; read-out: Binding affinity, IC50 (nM) D4
T4 construct: purchased BioSignal Packard Inc., Montreal, Canada
T4 sequence (P21917 with tags, fused parts or gaps DEL265-296): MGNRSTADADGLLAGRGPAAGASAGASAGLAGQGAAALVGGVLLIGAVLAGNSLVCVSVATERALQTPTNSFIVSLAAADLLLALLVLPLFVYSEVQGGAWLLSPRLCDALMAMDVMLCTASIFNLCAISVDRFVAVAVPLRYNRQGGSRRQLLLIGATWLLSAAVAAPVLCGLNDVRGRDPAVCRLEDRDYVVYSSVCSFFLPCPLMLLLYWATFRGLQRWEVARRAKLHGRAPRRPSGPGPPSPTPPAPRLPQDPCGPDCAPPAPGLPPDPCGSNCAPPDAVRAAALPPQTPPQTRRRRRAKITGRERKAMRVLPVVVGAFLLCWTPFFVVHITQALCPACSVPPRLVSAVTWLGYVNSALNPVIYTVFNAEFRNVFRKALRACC
Procedure: (§1) 2-2: Binding assays of Dopamine Receptor Family
(§2) The radioligands used were [^3H] spiperone (for hD2L and hD3 receptors, 1 nM) and [^3H] YM-09151-2 (for hD4.2 receptor, 0.06 nM). Radioligand bindings were performed by the protocols provided by the supplier of receptor membranes (BioSignal Packard Inc., Montreal, Canada). Briefly, the buffer used in D2 or D3 receptor binding assay was 50 mM Tris-HCl (pH 7.4), 10 mM MgCl2, 1 mM EDTA, or 50 mM Tris-HCl (pH 7.4), 5 mM MgCl2, 5 mM EDTA, 5 mM KCl, 1.5 mM CaCl2, 120 mM NaCl, respectively. In [^3H] YM-09151-2 receptor binding assays, the buffer containing 50 mM Tris-HCl (pH 7.4), 5 mM MgCl2, 5 mM EDTA, 5 mM KCl and 1.5 mM CaCl2 was used. […] Competition binding studies were carried out with 7-8 concentrations of the test compound run in duplicate tubes, and isotherms from three assays were calculated by computerized nonlinear regression analysis (GraphPad Prism Program, San Diego, […]) to yield median inhibitory concentration (IC50) values.

D1 = D1 (Homo sapiens, UniProt P21728); experiment: Radioligand binding, dopamine D1; conditions: Table 4; read-out: Binding affinity, IC50 (nM) D1
D1, sequence (P21728 whole entry): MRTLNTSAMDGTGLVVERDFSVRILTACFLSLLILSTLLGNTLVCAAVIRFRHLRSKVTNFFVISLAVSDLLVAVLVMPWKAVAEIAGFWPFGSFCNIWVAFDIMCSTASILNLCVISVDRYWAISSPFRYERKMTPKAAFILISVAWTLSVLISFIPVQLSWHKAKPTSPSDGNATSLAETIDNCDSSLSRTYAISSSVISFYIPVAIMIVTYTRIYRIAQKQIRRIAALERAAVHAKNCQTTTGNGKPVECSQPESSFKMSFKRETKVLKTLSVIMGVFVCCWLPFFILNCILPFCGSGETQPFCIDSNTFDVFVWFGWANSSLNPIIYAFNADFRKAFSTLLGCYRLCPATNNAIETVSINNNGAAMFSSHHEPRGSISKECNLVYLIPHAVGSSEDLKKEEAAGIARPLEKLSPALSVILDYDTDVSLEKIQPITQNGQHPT

hD2L = biological target: T5, hD2L (Homo sapiens, UniProt P14416); experiment: Radioligand binding, dopamine D2 ([3H]spiperone); conditions: Table 4; [3H]spiperone 1 nM; read-out: Binding affinity, IC50 (nM) D2
T5 construct: purchased BioSignal Packard Inc., Montreal, Canada
T5 sequence (P14416 whole entry): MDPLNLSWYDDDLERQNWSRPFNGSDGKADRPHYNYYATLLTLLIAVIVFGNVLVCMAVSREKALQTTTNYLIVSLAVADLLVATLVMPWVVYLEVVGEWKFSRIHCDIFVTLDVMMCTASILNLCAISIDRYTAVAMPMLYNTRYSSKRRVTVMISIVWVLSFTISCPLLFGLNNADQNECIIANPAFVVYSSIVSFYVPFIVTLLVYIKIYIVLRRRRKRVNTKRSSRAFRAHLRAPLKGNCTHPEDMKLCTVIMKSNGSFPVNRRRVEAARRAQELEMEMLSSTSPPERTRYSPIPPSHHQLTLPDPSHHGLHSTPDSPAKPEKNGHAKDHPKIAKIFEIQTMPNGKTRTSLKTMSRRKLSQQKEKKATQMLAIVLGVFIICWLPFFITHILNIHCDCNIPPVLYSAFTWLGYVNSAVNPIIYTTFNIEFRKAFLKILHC
Procedure: as §1, §2

5-HT1a = biological target: T6, 5-HT1a (Homo sapiens, UniProt P08908); experiment: Radioligand binding, 5-HT1a ([3H]8-OH-DPAT); conditions: Table 4; [3H]8-OH-DPAT 0.5 nM; read-out: Binding affinity, IC50 (nM) 5-HT1a
T6 construct: purchased Euroscreen/BioSignal Packard Inc
T6 sequence (P08908 1-422): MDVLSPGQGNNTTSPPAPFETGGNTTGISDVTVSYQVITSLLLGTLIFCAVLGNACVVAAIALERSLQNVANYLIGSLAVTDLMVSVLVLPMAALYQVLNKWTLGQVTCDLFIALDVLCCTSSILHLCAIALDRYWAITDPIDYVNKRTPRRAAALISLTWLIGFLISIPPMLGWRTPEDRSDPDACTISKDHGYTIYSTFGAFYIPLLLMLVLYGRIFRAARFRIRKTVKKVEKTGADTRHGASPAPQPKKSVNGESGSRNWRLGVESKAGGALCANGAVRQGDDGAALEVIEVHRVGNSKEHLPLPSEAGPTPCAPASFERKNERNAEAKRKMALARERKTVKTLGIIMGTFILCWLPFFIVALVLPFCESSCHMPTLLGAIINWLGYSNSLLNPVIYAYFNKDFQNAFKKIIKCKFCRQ
Procedure: Radioligand bindings were performed according to the test method provided by the supplier of receptor membrane (Euroscreen/BioSignal Packard Inc.). The detailed assay conditions and the results were shown in the following Table 3 and Table 4, respectively.

5-HT7 = biological target: T7, 5-HT7 (Homo sapiens, UniProt P34969); experiment: Radioligand binding, 5-HT7 ([3H]LSD); conditions: Table 4; [3H]LSD 3 nM; read-out: Binding affinity, IC50 (nM) 5-HT7
T7 construct: purchased Euroscreen/BioSignal Packard Inc
T7 sequence (P34969 whole entry): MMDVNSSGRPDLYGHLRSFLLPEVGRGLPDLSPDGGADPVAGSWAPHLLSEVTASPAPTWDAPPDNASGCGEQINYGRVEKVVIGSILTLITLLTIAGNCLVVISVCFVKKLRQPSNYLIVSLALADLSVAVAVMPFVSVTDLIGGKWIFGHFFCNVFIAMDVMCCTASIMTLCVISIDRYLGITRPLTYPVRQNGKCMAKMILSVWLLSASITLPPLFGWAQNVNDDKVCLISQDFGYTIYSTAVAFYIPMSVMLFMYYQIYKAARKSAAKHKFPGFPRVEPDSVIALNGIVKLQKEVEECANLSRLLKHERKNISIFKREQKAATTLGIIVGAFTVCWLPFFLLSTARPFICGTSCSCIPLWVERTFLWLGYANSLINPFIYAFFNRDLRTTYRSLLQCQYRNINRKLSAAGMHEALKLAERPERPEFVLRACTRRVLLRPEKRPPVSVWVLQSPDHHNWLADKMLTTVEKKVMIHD

hD3 = biological target: T8, hD3 (Homo sapiens, UniProt P35462); experiment: Radioligand binding, dopamine D3 ([3H]spiperone); conditions: Table 4; [3H]spiperone 1 nM; read-out: Binding affinity, IC50 (nM) D3
T8 construct: purchased BioSignal Packard Inc., Montreal, Canada
T8 sequence (P35462 whole entry): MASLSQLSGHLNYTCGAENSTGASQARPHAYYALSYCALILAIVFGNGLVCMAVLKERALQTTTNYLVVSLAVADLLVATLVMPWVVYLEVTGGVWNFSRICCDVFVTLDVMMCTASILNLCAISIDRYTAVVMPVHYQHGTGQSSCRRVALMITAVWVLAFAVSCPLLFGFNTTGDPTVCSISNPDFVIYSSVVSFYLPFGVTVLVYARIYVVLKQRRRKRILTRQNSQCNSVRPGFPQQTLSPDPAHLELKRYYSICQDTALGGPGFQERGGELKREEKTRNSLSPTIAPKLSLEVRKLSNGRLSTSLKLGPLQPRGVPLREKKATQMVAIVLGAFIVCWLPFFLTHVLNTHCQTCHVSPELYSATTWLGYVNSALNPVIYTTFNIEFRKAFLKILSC
Procedure: as §1, §2

[2] = Table 2, 1.87 nM [3H]LSD, 37 C, 60 min, read-out: IC50 (nM), binding affinity to the 5-HT6 receptor
[3] = Table 4, read-out: Binding affinity, IC50 (nM) 5-HT6

Structure (SMILES) | IC50 (5-HT2c) [nM] | IC50 (5-HT2a) [nM] | IC50 [1, 2] [nM] | IC50 [1, 3] [nM] | IC50 (hD4.2 receptor) [nM] | IC50 (D1) [nM] | IC50 (hD2L) [nM] | IC50 (5-HT1a) [nM] | IC50 (5-HT7) [nM] | IC50 (hD3) [nM] | melting point [°C]
CCNc1ccc(C2(C)C(=O)c3c(N4CCNCC4)cc(Cl)cc3N(Cc3ccccc3)C2=O)cc1 (stereo not shown) [Example 18, 1-Benzyl-7-chloro-3-(4-ethylamino-phenyl)-3-methyl-5-piperazin-1-yl-1H-quinoline-2,4-dione] | 8450 | 7010 | 14.6 | 15.5 | 8990 | > 10000 | > 1000 | 8050 | 6010 | 8900 | 
COc1ccc(CN2C(=O)C(C)(c3ccc(OC)cc3)C(=O)c3c(N4CCNCC4)cc(Cl)cc32)cc1 (stereo not shown) [Example 31, 7-Chloro-1-(4-methoxy-benzyl)-3-(4-methoxy-phenyl)-3-methyl-5-piperazin-1-yl-1H-quinoline-2,4-dione] | 7950 | 8340 | 26.5 | 21.3 | 8710 | 7550 | 6430 | 6950 | 8440 | 8950 | 182 to 183
CC1(c2cccc(O)c2)C(=O)c2c(N3CCNCC3)cc(Cl)cc2N(Cc2ccccc2)C1=O (stereo not shown) [Example 51, 1-Benzyl-7-chloro-3-(3-hydroxy-phenyl)-3-methyl-5-piperazin-1-yl-1H-quinoline-2,4-dione] | 8740 | 7550 | 6.2 | 20.7 | 9460 | 6390 | 8650 | 8450 | 7580 | 9880 | 238 to 240
CN1CCN(c2cc(Cl)cc3c2C(=O)[C@@](C)(c2ccc(N)cc2)C(=O)N3Cc2ccccc2)CC1 (stereo in doubt) [Example 4, 3-(4-Amino-phenyl)-1-benzyl-7-chloro-3-methyl-5-(4-methyl-piperazin-1-yl)-1H-quinoline-2,4-dione] | 5780 | 7010 | 7.4 | 15 | 8190 | 7090 | 6550 | 5800 | 5050 | 8110 | 
CCN(CC)c1ccc(C2(C)C(=O)c3c(N4CCNCC4)cc(Cl)cc3N(Cc3ccccc3)C2=O)cc1 (stereo not shown) [Example 17, 1-Benzyl-7-chloro-3-(4-diethylamino-phenyl)-3-methyl-5-piperazin-1-yl-1H-quinoline-2,4-dione] | 9810 | 7550 | 41.5 | 21.5 | 9110 | 8410 | 9050 | 8550 | > 10000 | 8200 | 
CC1(c2ccc(O)cc2)C(=O)c2c(N3CCNCC3)cc(Cl)cc2N(Cc2ccc3ccccc3c2)C1=O (stereo not shown) [Example 40, 7-Chloro-3-(4-hydroxy-phenyl)-3-methyl-1-naphthalen-2-ylmethyl-5-piperazin-1-yl-1H-quinoline-2,4-dione] | 8510 | 9480 | 55.7 | 18.2 | 8980 | 7510 | 8540 | 7510 | 7810 | 9310 | 
CC1(c2ccc(O)cc2)C(=O)c2c(N3CCNCC3)cc(Cl)cc2N(Cc2cccc(N)c2)C1=O (stereo not shown) [Example 26, 1-(3-Amino-benzyl)-7-chloro-3-(4-hydroxy-phenyl)-3-methyl-5-piperazin-1yl-1H-quinoline-2,4-dione] | 7330 | 5750 | 8.7 | 19 | 9410 | 6950 | 8410 | 5900 | 5630 | 9120 | 
CC1(c2ccc(O)cc2)C(=O)c2c(N3CCNCC3)cc(Cl)cc2N(Cc2cccnc2)C1=O (stereo not shown) [Example 38, 7-Chloro-3-(4-hydroxy-phenyl)-3-methyl-5-piperazin-1-yl-1-pyridin-3-ylmethyl-1H-quinoline-2,4-dione] | 9140 | 8400 | 30.6 | 20.4 | 9240 | 9410 | 7690 | 8450 | 6410 | 9310 | 
CC1(c2ccc(N)cc2)C(=O)c2c(N3CCNCC3)cc(Cl)cc2N(Cc2ccccc2)C1=O (stereo not shown) [Example 16, 3-(4-Amino-phenyl)-1-benzyl-7-chloro-3-methyl-5-piperazin-1-yl-1H-quinolin-2,4-dione] | 9880 | 8080 | 3.2 | 17.6 | 8910 | 9010 | 6740 | 6020 | 9350 | 9070 | 
CC1(c2ccc(O)cc2)C(=O)c2c(N3CCNCC3)cc(Cl)cc2N(Cc2cccc(Br)c2)C1=O (stereo not shown) [Example 34, 1-(3-Bromo-benzyl)-7-chloro-3-(4-hydroxy-phenyl)-3-methyl-5-piperazin-1-yl-1H-quinoline-2,4-dione] | 7030 | 6960 | 3.6 | 16.8 | 9350 | 9160 | 8050 | 7550 | 9070 | 9000 | 
CC1(c2ccc(O)cc2)C(=O)c2c(N3CCNCC3)cc(Cl)cc2N(Cc2ccccc2O)C1=O (stereo not shown) [Example 30, 7-Chloro-1-(2-hydroxy-benzyl)-3-(4-hydroxy-phenyl)-3-methyl-5-piperazin-1-yl-1H-quinoline-2,4-dione] | 9450 | 8400 | 15.9 | 18.1 | 8760 | 8000 | 7650 | 7240 | 7340 | 9780 | 
